This is an account of results in US20230295200A1 (REGENTS OF THE UNIVERSITY OF MICHIGAN, priority 2022, published 2023).

In experiment [1] the target is T1, STAT6 protein (Homo sapiens, UniProt P42226).
T1 sequence (P42226 1-847): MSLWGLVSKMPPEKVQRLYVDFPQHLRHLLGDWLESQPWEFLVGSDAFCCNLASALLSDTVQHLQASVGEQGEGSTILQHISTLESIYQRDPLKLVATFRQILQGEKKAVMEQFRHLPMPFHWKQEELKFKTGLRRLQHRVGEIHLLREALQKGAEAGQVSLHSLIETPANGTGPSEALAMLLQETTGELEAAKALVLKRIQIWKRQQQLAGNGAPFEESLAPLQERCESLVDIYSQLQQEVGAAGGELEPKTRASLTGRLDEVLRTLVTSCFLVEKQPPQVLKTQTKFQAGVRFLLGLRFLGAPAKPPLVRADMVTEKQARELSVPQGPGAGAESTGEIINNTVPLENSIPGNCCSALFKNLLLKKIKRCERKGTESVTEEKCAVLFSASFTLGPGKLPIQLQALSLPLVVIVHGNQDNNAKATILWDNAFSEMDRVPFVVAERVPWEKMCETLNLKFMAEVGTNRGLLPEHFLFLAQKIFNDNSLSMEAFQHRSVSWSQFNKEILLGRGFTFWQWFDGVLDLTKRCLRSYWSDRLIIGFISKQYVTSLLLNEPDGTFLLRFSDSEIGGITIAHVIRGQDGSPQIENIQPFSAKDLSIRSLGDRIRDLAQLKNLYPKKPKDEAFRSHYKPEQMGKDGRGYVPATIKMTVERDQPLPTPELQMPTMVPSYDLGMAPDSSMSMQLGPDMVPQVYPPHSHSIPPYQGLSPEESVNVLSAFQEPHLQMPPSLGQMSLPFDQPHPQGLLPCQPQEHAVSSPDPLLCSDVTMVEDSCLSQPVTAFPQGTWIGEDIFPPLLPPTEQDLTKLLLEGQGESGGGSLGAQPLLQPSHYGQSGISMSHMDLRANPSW
As to the kind of experiment: Fluorescence polarization (FP) binding assay, STAT6. As to conditions: FP competition, 5 nM fluorescein-labeled tracer, 200 nM protein, PBS pH7.4; read-out: Binding STAT6. A digest of the protocol:
(§1)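 Fluorescence polarization is read after STAT5 or STAT6 protein (200 nM) and a fluorescein-labeled tracer (5 nM) equilibrate for 1 h at room temperature in DTT-containing PBS pH 7.4 with BGG and Tween-20. Inhibition constants are obtained by nonlinear curve fitting.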

The target of experiment [2] is T2, STAT5A (Homo sapiens, UniProt P42229).
T2 sequence (P42229 1-794): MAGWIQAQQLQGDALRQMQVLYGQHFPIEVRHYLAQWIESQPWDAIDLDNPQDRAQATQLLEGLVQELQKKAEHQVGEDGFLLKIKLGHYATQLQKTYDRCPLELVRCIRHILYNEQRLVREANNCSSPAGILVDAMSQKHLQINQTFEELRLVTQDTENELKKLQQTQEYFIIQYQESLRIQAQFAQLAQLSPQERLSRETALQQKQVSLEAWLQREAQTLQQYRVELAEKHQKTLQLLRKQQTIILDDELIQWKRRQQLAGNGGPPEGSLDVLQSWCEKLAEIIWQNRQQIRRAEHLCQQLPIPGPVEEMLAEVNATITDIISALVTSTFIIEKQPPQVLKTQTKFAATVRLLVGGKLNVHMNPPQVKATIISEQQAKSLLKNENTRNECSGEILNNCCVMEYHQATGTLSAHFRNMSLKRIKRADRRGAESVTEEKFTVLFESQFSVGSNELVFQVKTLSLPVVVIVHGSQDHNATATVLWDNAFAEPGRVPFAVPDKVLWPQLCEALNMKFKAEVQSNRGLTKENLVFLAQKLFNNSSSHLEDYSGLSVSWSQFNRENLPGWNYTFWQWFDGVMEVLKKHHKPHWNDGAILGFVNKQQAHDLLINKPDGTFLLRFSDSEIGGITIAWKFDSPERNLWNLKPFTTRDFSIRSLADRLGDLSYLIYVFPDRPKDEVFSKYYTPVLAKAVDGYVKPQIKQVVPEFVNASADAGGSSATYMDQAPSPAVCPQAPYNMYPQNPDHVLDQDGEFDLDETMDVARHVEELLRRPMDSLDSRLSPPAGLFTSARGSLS
Kind of experiment: Fluorescence polarization (FP) binding assay, STAT5A. The conditions noted are these: FP competition, 5 nM fluorescein-labeled tracer, 200 nM protein, PBS pH7.4. The procedure, abridged:
as §1

Molecules are shown by their SMILES.

For `CC(=O)N1CCC(C(NC(=O)c2cc3cc(C(F)(F)P(=O)(O)O)ccc3[nH]2)C(=O)N2CCC[C@H]2C(=O)N2CCc3ccccc3C2)CC1` (stereo partly drawn) [Compound 34, ((2-((1-(1-acetylpiperidin-4-yl)-2-oxo-2-((S)-2-(1,2,3,4-tetrahydroisoquinoline-2-carbonyl)pyrrolidin-1-yl)ethyl)carbamoyl)-1H-indol-5-yl)difluoromethyl)phosphonic acid], the Ki in experiment [1] and in experiment [2] was more than 10 µM in each case.
For `O=C(N[C@@H](CC1=CCN(Cc2ccccc2)CC1)C(=O)N1CCC[C@H]1C(=O)N1CCc2ccccc2C1)c1cc2cc(C(F)(F)P(=O)(O)O)ccc2[nH]1` [Compound 35, ((2-(((S)-3-(1-benzyl-1,2,3,6-tetrahydropyridin-4-yl)-1-oxo-1-((S)-2-(1,2,3,4-tetrahydroisoquinoline-2-carbonyl)pyrrolidin-1-yl)propan-2-yl)carbamoyl)-1H-indol-5-yl)difluoromethyl)phosphonic acid], the Ki in experiment [1] and in experiment [2] was more than 10 µM in each case.
For the molecule `O=C(N[C@@H](CC1CCNCC1)C(=O)N1CCC[C@H]1C(=O)N1CCc2ccccc2C1)c1cc2cc(C(F)(F)P(=O)(O)O)ccc2[nH]1` [Compound 36, (difluoro(2-(((S)-1-oxo-3-(piperidin-4-yl)-1-((S)-2-(1,2,3,4-tetrahydroisoquinoline-2-carbonyl)pyrrolidin-1-yl)propan-2-yl)carbamoyl)-1H-indol-5-yl)methyl)phosphonic acid], the Ki in experiment [1] and in experiment [2] was more than 10 µM each time.
Consider `CC(C)(C)[C@H](NC(=O)c1cc2cc(C(F)(F)P(=O)(O)O)ccc2s1)C(=O)N1CCC[C@H]1C(=O)N(c1ccc(I)cc1)c1ccc(C(=O)OCc2ccccc2)cc1` [Compound 37, ((2-(((S)-1-((S)-2-((4-((benzyloxy)carbonyl)phenyl)(4-iodophenyl)carbamoyl)pyrrolidin-1-yl)-3,3-dimethyl-1-oxobutan-2-yl)carbamoyl)benzo[b]thiophen-5-yl)difluoromethyl)phosphonic acid], for which the figures for the Ki in experiment [1] and in experiment [2] were 0.1 to 1 µM and 1 to 10 µM, respectively.
As for `COC(=O)CCN(C(=O)[C@@H]1CCCN1C(=O)[C@@H](NC(=O)c1cc2cc(C(F)(F)P(=O)(O)O)ccc2s1)C(C)(C)C)c1ccccc1` [Compound 38, (difluoro(2-(((S)-1-((S)-2-((3-methoxy-3-oxopropyl)(phenyl)carbamoyl)pyrrolidin-1-yl)-3,3-dimethyl-1-oxobutan-2-yl)carbamoyl)benzo[b]thiophen-5-yl)methyl)phosphonic acid], the Ki in experiment [1] and in experiment [2] was 1 to 10 µM throughout.
As for `CC(C)(C)[C@H](NC(=O)c1cc2cc(C(F)(F)P(=O)(O)O)ccc2s1)C(=O)N1CCC[C@H]1C(=O)N(c1ccccc1)c1ccc(I)cc1` [Compound 39, (difluoro(2-(((S)-1-((S)-2-((4-iodophenyl)(phenyl)carbamoyl)pyrrolidin-1-yl)-3,3-dimethyl-1-oxobutan-2-yl)carbamoyl)benzo[b]thiophen-5-yl)methyl)phosphonic acid], the results for the Ki in experiment [1] and in experiment [2] were 0.1 to 1 µM and 1 to 10 µM, respectively.
On to `CC(C)(C)[C@H](NC(=O)c1cc2cc(C(F)(F)P(=O)(O)O)ccc2[nH]1)C(=O)N1CCC[C@H]1C(=O)N(c1ccc(Cl)cc1)C1CCCCC1` [Compound 40, ((2-(((S)-1-((S)-2-((4-chlorophenyl)(cyclohexyl)carbamoyl)pyrrolidin-1-yl)-3,3-dimethyl-1-oxobutan-2-yl)carbamoyl)-1H-indol-5-yl)difluoromethyl)phosphonic acid], for which the Ki lay in the range of 0.1 to 1 µM in experiment [1] and 1 to 10 µM in experiment [2].
With `CNC(=O)c1ccc(N(C(=O)[C@@H]2CCCN2C(=O)[C@@H](NC(=O)c2cc3cc(C(F)(F)P(=O)(O)O)ccc3s2)C(C)(C)C)c2ccc(I)cc2)cc1` [Compound 42, (difluoro(2-(((S)-1-((S)-2-((4-iodophenyl)(4-(methylcarbamoyl)phenyl)carbamoyl)pyrrolidin-1-yl)-3,3-dimethyl-1-oxobutan-2-yl)carbamoyl)benzo[b]thiophen-5-yl)methyl)phosphonic acid], the results for the Ki in experiment [1] and in experiment [2] were 0.1 to 1 µM and 1 to 10 µM, respectively.
For the molecule `COC(=O)CCN(C(=O)[C@@H]1CCCN1C(=O)[C@@H](NC(=O)c1cc2cc(C(F)(F)P(=O)(O)O)ccc2s1)C(C)(C)C)c1ccc(Br)cc1` [Compound 43], the Ki in experiment [1] and in experiment [2] was 0.1 to 1 µM in each case.
`CNC(=O)c1ccc(N(C(=O)[C@@H]2CCCN2C(=O)[C@@H](NC(=O)c2cc3cc(C(F)(F)P(=O)(O)O)ccc3s2)C(C)(C)C)c2ccc(Cl)cc2)cc1` [Compound 44, ((2-(((S)-1-((S)-2-((4-chlorophenyl)(4-(methylcarbamoyl)phenyl)carbamoyl)pyrrolidin-1-yl)-3,3-dimethyl-1-oxobutan-2-yl)carbamoyl)benzo[b]thiophen-5-yl)difluoromethyl)phosphonic acid]: the Ki in experiment [1] was in the range of 0.1 to 1 µM; in experiment [2], 1 to 10 µM.
`CNC(=O)CCN(C(=O)[C@@H]1CCCN1C(=O)[C@@H](NC(=O)c1cc2cc(C(F)(F)P(=O)(O)O)ccc2s1)C(C)(C)C)c1ccc(Br)cc1` [Compound 45, ((2-(((S)-1-((S)-2-((4-bromophenyl)(3-(methylamino)-3-oxopropyl)carbamoyl)pyrrolidin-1-yl)-3,3-dimethyl-1-oxobutan-2-yl)carbamoyl)benzo[b]thiophen-5-yl)difluoromethyl)phosphonic acid]: the Ki fell in the range of 0.1 to 1 µM in experiment [1] and 1 to 10 µM in experiment [2].
As to `CC(C)(C)[C@H](NC(=O)c1cc2cc(C(F)(F)P(=O)(O)O)ccc2s1)C(=O)N1CCC[C@H]1C(=O)N(CCC(=O)O)c1ccc(Br)cc1` [Compound 46, 3-((S)-N-(4-bromophenyl)-1-((S)-2-(5-(difluoro(phosphono)methyl)benzo[b]thiophene-2-carboxamido)-3,3-dimethylbutanoyl)pyrrolidine-2-carboxamido)propanoic acid], the Ki in experiment [1] and in experiment [2] was 0.1 to 1 µM throughout.
Turning to `CC(C)(C)[C@H](NC(=O)c1cc2cc(C(F)(F)P(=O)(O)O)ccc2s1)C(=O)N1CCC[C@H]1C(=O)N1CCCC12CCCC2` [Compound 58, ((2-(((S)-1-((S)-2-(1-azaspiro[4.4]nonane-1-carbonyl)pyrrolidin-1-yl)-3,3-dimethyl-1-oxobutan-2-yl)carbamoyl)benzo[b]thiophen-5-yl)difluoromethyl)phosphonic acid], the Ki is 1 to 10 µM in experiment [1] and more than 10 µM in experiment [2].
For the molecule `CC(C)(C)[C@H](NC(=O)c1cc2cc(C(F)(F)P(=O)(O)O)ccc2s1)C(=O)N1CCC[C@H]1C(=O)N1CCC2(CCCC2)C1` [Compound 59, ((2-(((S)-1-((S)-2-(2-azaspiro[4.4]nonane-2-carbonyl)pyrrolidin-1-yl)-3,3-dimethyl-1-oxobutan-2-yl)carbamoyl)benzo[b]thiophen-5-yl)difluoromethyl)phosphonic acid], the Ki in experiment [1] was 1 to 10 µM; in experiment [2], more than 10 µM.
Regarding `CC(C)(C)[C@H](NC(=O)c1cc2cc(C(F)(F)P(=O)(O)O)ccc2s1)C(=O)N1CCC[C@H]1C(=O)N1CCCC12CCCCC2` [Compound 60, ((2-(((S)-1-((S)-2-(1-azaspiro[4.5]decane-1-carbonyl)pyrrolidin-1-yl)-3,3-dimethyl-1-oxobutan-2-yl)carbamoyl)benzo[b]thiophen-5-yl)difluoromethyl)phosphonic acid], the Ki is 1 to 10 µM in experiment [1] and more than 10 µM in experiment [2].
